Experimental data from publication PMC8944987, “In Vivo Efficacy of SQ109 against Leishmania donovani, Trypanosoma spp. and Toxoplasma gondii and In Vitro Activity of SQ109 Metabolites” (Biomedicines, 2022).
Like-named read-outs stand apart in the source and are kept apart here.

How the values were obtained:
[1] = Host cell toxicity in the T. cruzi amastigote assay; assay type: cell-based; conditions: human, amastigote host cells; read-out: T. cruzi Dm28c CC50 (U2OS)
Procedure: (§1) U2OS human osteosarcoma cells were maintained in DMEM supplemented with high glucose, 10% FBS, and 1% P/S at 37 °C with 5% CO2 in air. […] Cell images were acquired by an automated image analyzer (Operetta, Perkin Elmer Technology, Waltham, MA, USA); analysis included at least 1000 cells in five fields per well. For the imaging of infected cells and parasites, Draq-5 was observed under a 20× air objective. An image analysis algorithm (Columbus, Perkin Elmer Technology) was used to detect the Draq-5 signal in the nuclei of cells and parasites as described in a previous article and shown in Supplementary Figure S1 [20]. The number of parasites was defined by the value of the number of parasites in infected cells of the acquired image.

[2] = tested on: T. b. brucei Lister strain 427 bloodstream form (BSF); experiment: In vitro activity assay for T. brucei (resazurin growth inhibition); assay type: cell-based; conditions: Trypanosoma brucei
[3] = tested on: intracellular T. cruzi Dm28c amastigotes in U2OS; experiment: T. cruzi intracellular amastigotes assay in U2OS (image based); assay type: cell-based; conditions: Trypanosoma cruzi; for EC50: read-out: T. cruzi Dm28c EC50 (AMA)
Procedure: as §1

[4] = tested on: L. donovani promastigotes; experiment: L. donovani promastigotes assay (resazurin); assay type: cell-based; conditions: for EC50: read-out: L. donovani EC50 (PRO)
[5] = tested on: T. cruzi Dm28c epimastigotes; experiment: T. cruzi epimastigotes assay (resazurin); assay type: cell-based; conditions: Trypanosoma cruzi, read-out: T. cruzi Dm28c EC50 (EPI)
Procedure: The exponential growth phase of epimastigotes were treated with different concentrations of drugs or 0.1% DMSO as negative control and incubated for 3 days at 28 °C. The viability of parasites was quantified with resazurin as described in the T. brucei assay.

T. cruzi Dm28c = experiment: T. cruzi acute in vivo mouse model; parameters: species or system BALB/c mice; conditions: 100 mg/kg p.o.
Text: BALB/c mice were infected with TCT of T. cruzi Dm28c (10^7 cells) by i.p. injection. Five days post-infection, infected mice were sacrificed to collect BSF of T. cruzi. BALB/c mice were intraperitoneally infected with BSF of T. cruzi Dm28c (5 × 10^4 cells). Five days post-infection, BALB/c mice were infected with previously collected 2nd-round BSF cells (3 × 10^4 cells). Mice were divided into groups (n = 10) and treated orally with drugs for 5 consecutive days for 2 weeks by starting from day 2 post-infection administration of DPBS, 100 mg/kg of benznidazole, or 100 mg/kg of SQ109 via p.o. route, respectively. Parasitemia was evaluated every 2 days for 5 weeks by blood collection from the mouse tail vein, and survival was monitored for 2 months. Mice showing impaired health status were euthanized.

T. cruzi = tested on: T. cruzi; parameters: method as in earlier work; conditions: amiodarone acting alone; reported previously; ref 5 (b3); cited from earlier work
L. donovani amastigotes = experiment: L. donovani (VL) in vivo mouse model, liver LDU; parameters: species or system BALB/c mice; conditions: 30 mg/kg
Procedure: BALB/c mice (n = 5) were injected with 2 × 10^7 hamster spleen-derived L. donovani amastigotes via the retro-orbital venous sinus route. From day 7 post-infection, groups of mice were treated using the drug vehicle only, miltefosine (30 mg/kg), or SQ109 (30, 50, 100 mg/kg). On day 16 post-infection, all animals were humanely euthanized and assessed microscopically using Giemsa-stained liver imprints. […] The LDU values for the drug-treated samples were compared to those of the untreated samples.

[6] = tested on: THP-1 human monocyte cell line; experiment: Host cell toxicity in the L. donovani amastigote assay; assay type: cell-based; conditions: 3 days of compound incubation; Figure 2F
Procedure: The THP-1 human monocyte cell line was grown in RPMI-1640 medium (Welgene, Gyeongsangbuk-do, Republic of Korea) supplemented with 10% FBS and 1% P/S. For differentiation, THP-1 cells were treated for 3 days with 50 ng/mL of PMA [20]. […] An image analysis was performed as described in the T. cruzi assay (Figure S2).

[7] = tested on: intracellular L. donovani amastigotes in THP-1; experiment: L. donovani intracellular amastigotes assay in THP-1 (image based); assay type: cell-based; conditions: Leishmania donovani, 72 h; differentiated THP-1 host cells, 3 days of compound incubation; Figure 2F
[8] = bloodstream forms, read-out: T. brucei BSF EC50 (converted)
[9] = Leishmania donovani, promastigotes

SMILES	EC50 ([3]; amastigotes in U2OS) [µM]	EC50 [4, 9] [µM]	EC50 ([5]; epimastigotes) [µM]	CC50 at 3 days [1] [µM]	EC50 [2, 8] [µM]	also measured
CC(C)=CCC/C(C)=C/CN [Compound 17]	40	21	> 100	> 100	32	–
NC1C2CC3CC(C2)CC1C3 (centres unmarked) [Compound 18]	50	51	> 100	> 100	71	–
O=C(Cn1ccnc1[N+](=O)[O-])NCc1ccccc1 [benznidazole]	–	–	–	–	–	IC50 ([3]; 72 h, U2OS host cells, 3 days of compound incubation, Figure 2D, read-out: IC50, intracellular T. cruzi amastigote survival): 1.71 µM; survival of T. cruzi infected mice, in words (T. cruzi Dm28c; 40 days after infection): protected all the mice from death; parasitemia, in words (T. cruzi Dm28c; entire experimental period): complete suppression of parasitemia
N=C(N)c1ccc(OCCCCCOc2ccc(C(=N)N)cc2)cc1 [pentamidine, reference compound]	–	–	–	–	–	IC50 ([2]; 3 days (72 h) of compound incubation, Figure 2A, read-out: IC50, T. brucei trypomastigote viability): 0.15 µM
CC(C)=CCC/C(C)=C/CNCCN [Compound 20]	> 100	6	> 100	> 100	2.2	–
O=C1C2CC3CC(C2)CC1C3 [Compound 19]	–	–	–	> 100	–	EC50 ([2]; read-out: T. brucei BSF EC50): > 200 µM; EC50 ([3]; U2OS): > 100 µM; EC50 ([4]; Leishmania donovani): > 100 µM; EC50 [5]: > 100 µM
ON=C1C2CC3CC(C2)CC1C3 [Compound 16]	> 100	> 100	> 100	> 100	> 200	–
CC(C)=CCC/C(C)=C/C=O [Compound 13]	> 100	> 100	> 100	> 100	2.3	–
CCCCc1oc2ccccc2c1C(=O)c1cc(I)c(OCCN(CC)CC)c(I)c1 [amiodarone]	–	–	–	–	–	survival in T. cruzi infection (T. cruzi): 40%
CC(C)=CCCC(C)=CC=NO [Compound 15a]	> 100	> 100	> 100	> 100	> 200	–
CCCCCCCCCCCCCCCCOP(=O)([O-])OCC[N+](C)(C)C [miltefosine]	–	–	–	–	–	parasite burden in liver (LDU) (L. donovani amastigotes; 5 days of treatment): 142 ± 24 LDU; parasite reduction (L. donovani amastigotes; versus vehicle-treated group): 87.5%; IC50 ([4]; Leishmania donovani, 72 h, Figure 2E, read-out: IC50, L. donovani promastigote growth): 0.171 µM; host cell (THP-1) toxicity, in words [6]: no host cell toxicity was observed at the highest tested dose; IC50 [7]: 1.51 µM
CC(C)=CCC/C(C)=C/C(=O)O [Compound 14]	> 100	> 100	> 100	> 100	13	–
CC(C)=CCCC1(C)CC=NO1 (centres unmarked) [Compound 15b]	> 100	> 100	> 100	> 100	> 200	–

The next lines start with results.

EC50 ([3]; amastigotes in U2OS) [µM]	EC50 [4, 9] [µM]	EC50 ([5]; epimastigotes) [µM]	SMILES	CC50 at 3 days [1] [µM]	EC50 [2, 8] [µM]	also measured
3	1.27	14	CC(C)=CCC/C(C)=C/CNCCNC1C2CC3CC(C2)CC1(O)C3 (centres unmarked) [Compound 21]	6.8	3.2	EC50 ([4]; promastigotes): 1.3 µM
4.3	2.3	20	CC(C)=CCC/C(C)=C/CNCCNC1C2CC3CC1CC(C2)C3O (centres unmarked) [Compound 23]	17	1.8	–
7.5	3.54	23	CC(C)=CCC/C(C)=C/CNCCNC1C2CC3CC1CC(O)(C3)C2 (centres unmarked) [Compound 22]	29	2.9	EC50 ([4]; promastigotes): 3.5 µM
6.9	0.55	45	C/C(=C\CNCCNC1C2CC3CC(C2)CC1C3)CCC(=O)C(C)C (centres unmarked) [Compound 12]	32	2	–
3.2	1.1	14	CC(C)=CCC/C(C)=C/CNCCNC1C2CC3CC(C2)C(O)C1C3 (centres unmarked) [Compound 24]	14	1.8	–
25	22	56	NCCNC1C2CC3CC(C2)CC1C3 (centres unmarked) [Compound 7]	> 100	4.6	–
4.9	2.9	28	C/C(=C\CC/C(C)=C/CNCCNC1C2CC3CC(C2)CC1C3)CO (centres unmarked) [Compound 9]	27	5.4	–
